Experimental data from patent US6046340A, “Imidazole containing pseudodipeptide product and compositions containing the same” (Exsymol Societe Anonyme Monegasque, priority 1993, dated 2000).

What was measured:
[1] = Inhibitory power on the hydroxyl radical (deoxyribose oxidation, EDTA/iron, H2O2, thiobarbituric acid/MDA detection); type: biochemical; conditions: antioxidant 10 mM; deoxyribose substrate
Source text: Experimental procedure described by J. M. C. Gutteridge in Biochemistry Journal, vol 224 (1984), p. 761-767: oxidation substrate: deoxyribose, system of production of the hydroxyl radical OH.:
Detection: thiobarbituric acid/mondialdehyde (MDA)
Antioxidant of reference: dipeptide β-alanyl-L-histidine (sensitive to enzymatic deactivation)

[2] = Inhibitory power on the superoxide anion (xanthine oxydase/hypoxanthine, cytochrome C reduction at 550 nm); type: biochemical; conditions: for ability to inhibit the superoxide anion / reduction of cytochrom c (in words): enzymatic system generating superoxide anion
Source text: System of production of superoxide anion:xanthine oxydase/hypoxanthine (absence of iron).
The superoxide anion is a reducing substance. It is more especially able to reduce a substrate, the cytochrome C. Its reduction is followed with ultraviolet spectrophotometry to 550 nm.
The percentage of inhibition is described as follows: […]

human monocytes = test: Cell proliferation of a homogenous population of human monocytes (tritiated thymidine incorporation); type: cell-based
Source text: In order to specify the pseudodipeptides mode of action, a second experiment has been carried out on an homogenous population of human monocytes.
Cell proliferation has been evaluated the same way as previously: […]

murine splenocytes = test: Immunostimulating power: proliferation of murine splenocytes (tritiated thymidine incorporation); type: cell-based; conditions: for stimulation index (IS): mean of three measurements
Source text: Then experimental procedure is extracted from: J. Kunert-Radek, H. Stepien, K. Lyson and M. Pawlikowki--"Effects of calcium channel modulators on the proliferation of mouse spleen lymphocytes in vitro"--Agents and Actions, vol. 29 Nos 3-4 (1990), p. 254-258.
The cell proliferation is followed by the measurement of the incorporation rate of the tritiated thymidine in the cells, expressed in number of desintegrations per mn, deduced from the background noise.
The results obtained with an immunostimulator of reference, the concanavaline A, are given for comparison.
The immunostimulating effect is expressed with a stimulation index (SI). [formula] The values correspond to the mean value of three measurements.

ability to inhibit the superoxide anion / reduction of cytochrom c (in words) [2] | % of inhibition (superoxide anion, cytochrome C reduction) ([2]; 1 mM) | % of inhibition (superoxide anion, cytochrome C reduction) ([2]; 5 mM) [%] | % of inhibition (superoxide anion, cytochrome C reduction) ([2]; 10 mM) [%] | % of inhibition (superoxide anion, cytochrome C reduction) ([2]; 20 mM) [%] | Molecule | % inhibiton (hydroxyl radical OH.) [1] [%] | stimulation index (IS) (human monocytes; 2.50 μg/ml) | stimulation index (IS) (human monocytes; 5.00 μg/ml) | stimulation index (IS) (human monocytes; 10.00 μg/ml) | stimulation index (IS) (human monocytes; 25.00 μg/ml) | average factor of activity versus concanavaline A (human monocytes; human monocytes) | stimulation index (IS) (murine splenocytes; 2.5 μg/ml) | stimulation index (IS) (murine splenocytes; 5.0 μg/ml) | stimulation index (IS) (murine splenocytes; 10.0 μg/ml) | stimulation index (IS) (murine splenocytes; 25.0 μg/ml) | concentration of maximal immunostimulating effect (murine splenocytes; murine splenocytes) [µg/mL]
do not have the ability to inhibit |  |  |  |  | O=C(NCCc1c[nH]cn1)[C@@H]1CCCN1 [L-prolyl-histamine] | 62 |  |  |  |  |  |  |  |  |  | 
do not have the ability to inhibit |  |  |  |  | NCCC(=O)N[C@@H](Cc1c[nH]cn1)C(=O)O [β-alanyl-L-histidine, reference compound] | 38 |  |  |  |  |  |  |  |  |  | 
strongly inhibit | 3,5% | 14 | 24 | 35 | N[C@@H](CCC(=O)O)C(=O)NCCc1c[nH]cn1 [L-glutamyl-histamine, L-Glutamyl-histamine] | 0 | 8.23 | 39.80 | 23.50 | 2.50 | 1.34 | 7.8 | 42.7 | 42.1 | 5.6 | 5
 |  |  |  |  | concanavaline A [reference compound] |  | 4.82 | 29.60 | 21.10 |  |  | 8.3 | 33.4 | 61.5 | 4.3 | 
